In patent US20240425517A1, “NOVEL COMPOUND FOR DEGRADATION OF TARGET PROTEIN OR POLYPEPTIDE BY POLYUBIQUITINATION” (PRAZER THERAPEUTICS INC., priority 2021, published 2024):

Target: T1, BRD4 proteins (Homo sapiens, UniProt O60885)
T1 construct: endogenous in cells; host or cells: MM.1S
Test: Degradation of BRD4 protein in MM.1S cell lines (Western blot densitometry)
Assay type: cell-based
Settings: MM.1S cells, 10 μM, 24 hours
Experimental: To confirm that the compounds (BRD4 degraders) of Preparation Examples I′ to IV′ reduce the amount of BRD4 proteins, experiments were performed using MM.1S cell lines, which are B cells derived from the blood of multiple myeloma patients.
Specifically, the MM.1S cells were cultured in RPMI-1640 medium supplemented with 10% fetal bovine serum and Penicillin/Streptomycin (100 U/mL), transferred to a 6-well plate, and after 24 hours, the BRD4 degraders were diluted in the culture medium and the cells were treated with 10 μM each. After treatment, the cells were incubated in a C02 incubator for 24 hours. Through protein immunoblotting (Western Blot), the degrading capacity of each compound against BRD4 proteins in cells was confirmed. After cell culture was completed according to the experimental conditions, the cells were collected and centrifuged at 1,800 rpm for 3 minutes. The cells in the precipitate were lysed with RIPA (25 mM Tris-HCl pH 7.6, 150 mM NaCl, 1% NP-40, 1% sodium deoxycholate, 0.1% SDS, 1× Protease Inhibitor Cocktail), 5× sample buffer was added, and then heated at 100° C. for 15 minutes. The prepared sample was electrophoresed with sodium dodecyl sulfate poly acrylamide gel electrophoresis (SDS-PAGE), and then the proteins in the gel were transferred to a PVDF membrane using Trans-Blot Turbo. The membrane was treated with a 5% bovine serum albumin (BSA) solution and blocked at room temperature for 2 hours, and then BRD4 and R-actin antibodies were diluted in the 5% BSA solution to react with the membrane at 4° C. overnight. After washed with PBST (0.5% Tween20) 5 times, horse radish peroxidase (HRP)-conjugated secondary antibodies were diluted in PBST to react at room temperature for 2 hours, and then washed again with a PBST solution 5 times. After enzyme-substrate reaction was carried out using a HRP substrate, a signal was measured with chemi-doc equipment, and the densitometry of a band corresponding to the BRD4 protein detected in the Preparation Example Compounds was quantitatively analyzed. The case when the degrading capacity of each BRD4 degrader was reduced by less than 40% is indicated as +, the case when the degrading capacity was reduced by 40% to 70% (exclusive of 70) is indicated as ++, the case when the degrading capacity was reduced by 70% or more is indicated as +++ in Tables 16 to 19 below. As shown in the following Tables, it was confirmed that the compounds of Preparation Examples I′ to IV′ according to the present invention have excellent degrading capacity.

| Compound | BRD4 degrading capacity (%) |
| --- | --- |
| Cc1sc2c(c1C)C(c1ccc(Cl)cc1)=N[C@@H](CC(=O)Nc1ccc(C#CCN)cc1)c1nnc(C)n1-2.Cl [1-1′, (S)—N-(4-(3-aminoprop-1-yn-1-yl)phenyl)-2-(4-(4-chlorophenyl)-2,3,9-trimethyl-6H-thieno[3,2-f][1,2,4]triazolo[4,3-a][1,4]diazepin-6-yl)acetamide hydrochloride] | ++ (the degrading capacity was reduced by 40% to 70% (exclusive of 70)) |
| Cc1sc2c(c1C)C(c1ccc(Cl)cc1)=N[C@@H](CC(=O)Nc1cccc(C#CCN)c1)c1nnc(C)n1-2.Cl [1-3′, (S)—N-(3-(3-aminoprop-1-yn-1-yl)phenyl)-2-(4-(4-chlorophenyl)-2,3,9-trimethyl-6H-thieno[3,2-f][1,2,4]triazolo[4,3-a][1,4]diazepin-6-yl)acetamide hydrochloride] | ++ (the degrading capacity was reduced by 40% to 70% (exclusive of 70)) |
| COC(=O)c1cc(NC(=O)C[C@@H]2N=C(c3ccc(Cl)cc3)c3c(sc(C)c3C)-n3c(C)nnc32)ccc1C#CCN.Cl [3-1′, methyl (S)-2-(3-aminoprop-1-yn-1-yl)-5-(2-(4-(4-chlorophenyl)-2,3,9-trimethyl-6H-thieno[3,2-f][1,2,4]triazolo[4,3-a][1,4]diazepin-6-yl)acetamido)benzoate hydrochloride] | +++ (the degrading capacity was reduced by 70% or more) |
| Cc1sc2c(c1C)C(c1ccc(Cl)cc1)=N[C@@H](CC(=O)Nc1ccc(C#CCN)c(C(=O)O)c1)c1nnc(C)n1-2.Cl [3-2′, (S)-2-(3-aminoprop-1-yn-1-yl)-5-(2-(4-(4-chlorophenyl)-2,3,9-trimethyl-6H-thieno[3,2-f][1,2,4]triazolo[4,3-a][1,4]diazepin-6-yl)acetamido)benzoic acid hydrochloride] | ++ (the degrading capacity was reduced by 40% to 70% (exclusive of 70)) |
| Cc1sc2c(c1C)C(c1ccc(Cl)cc1)=N[C@@H](CC(=O)Nc1ccc(C#CCN)c(CO)c1)c1nnc(C)n1-2.Cl [3-3′, (S)—N-(4-(3-aminoprop-1-yn-1-yl)-3-(hydroxymethyl)phenyl)-2-(4-(4-chlorophenyl)-2,3,9-trimethyl-6H-thieno[3,2-f][1,2,4]triazolo[4,3-a][1,4]diazepin-6-yl)acetamide hydrochloride] | +++ (the degrading capacity was reduced by 70% or more) |
| Cc1sc2c(c1C)C(c1ccc(Cl)cc1)=N[C@@H](CC(=O)Nc1ccc(C#CCN)c(COP(=O)(O)O)c1)c1nnc(C)n1-2 [3-8′, (S)-2-(3-aminoprop-1-yn-1-yl)-5-(2-(4-(4-chlorophenyl)-2,3,9-trimethyl-6H-thieno[3,2-f][1,2,4]triazolo[4,3-a][1,4]diazepin-6-yl)acetamido)benzyl dihydrogen phosphate trifluoroacetic acid] | + (the degrading capacity of each BRD4 degrader was reduced by less than 40%) |
| COC(=O)c1ccc(NC(=O)C[C@@H]2N=C(c3ccc(Cl)cc3)c3c(sc(C)c3C)-n3c(C)nnc32)cc1C#CCN.Cl [3-25′, methyl (S)-2-(3-aminoprop-1-yn-1-yl)-4-(2-(4-(4-chlorophenyl)-2,3,9-trimethyl-6H-thieno[3,2-f][1,2,4]triazolo[4,3-a][1,4]diazepin-6-yl)acetamido)benzoate hydrochloride] | +++ (the degrading capacity was reduced by 70% or more) |
| Cc1sc2c(c1C)C(c1ccc(Cl)cc1)=N[C@@H](CC(=O)Nc1ccc(C(=O)O)c(C#CCN)c1)c1nnc(C)n1-2.Cl [3-26′, (S)-2-(3-aminoprop-1-yn-1-yl)-4-(2-(4-(4-chlorophenyl)-2,3,9-trimethyl-6H-thieno[3,2-f][1,2,4]triazolo[4,3-a][1,4]diazepin-6-yl)acetamido)benzoic acid hydrochloride] | ++ (the degrading capacity was reduced by 40% to 70% (exclusive of 70)) |
| Cc1sc2c(c1C)C(c1ccc(Cl)cc1)=N[C@@H](CC(=O)Nc1ccc(CO)c(C#CCN)c1)c1nnc(C)n1-2.Cl [3-27′, (S)—N-(3-(3-aminoprop-1-yn-1-yl)-4-(hydroxymethyl)phenyl)-2-(4-(4-chlorophenyl)-2,3,9-trimethyl-6H-thieno[3,2-f][1,2,4]triazolo[4,3-a][1,4]diazepin-6-yl)acetamide hydrochloride] | ++ (the degrading capacity was reduced by 40% to 70% (exclusive of 70)) |
| Cc1sc2c(c1C)C(c1ccc(Cl)cc1)=N[C@@H](CC(=O)Nc1ccc(C#CC(N)CO)cc1)c1nnc(C)n1-2.Cl (stereo partly drawn) [3-49′, N-(4-(3-amino-4-hydroxybut-1-yn-1-yl)phenyl)-2-((S)-4-(4-chlorophenyl)-2,3,9-trimethyl-6H-thieno[3,2-f][1,2,4]triazolo[4,3-a][1,4]diazepin-6-yl)acetamide hydrochloride] | ++ (the degrading capacity was reduced by 40% to 70% (exclusive of 70)) |
| Cc1sc2c(c1C)C(c1ccc(Cl)cc1)=N[C@@H](CC(=O)Nc1cccc(C#CC(N)CO)c1)c1nnc(C)n1-2.Cl (stereo partly drawn) [3-51′, N-(3-(3-amino-4-hydroxybut-1-yn-1-yl)phenyl)-2-((S)-4-(4-chlorophenyl)-2,3,9-trimethyl-6H-thieno[3,2-f][1,2,4]triazolo[4,3-a][1,4]diazepin-6-yl)acetamide hydrochloride] | +++ (the degrading capacity was reduced by 70% or more) |
| Cc1sc2c(c1C)C(c1ccc(Cl)cc1)=N[C@@H](CC(=O)Nc1ccc(C#CC(N)COP(=O)(O)O)cc1)c1nnc(C)n1-2 (stereo partly drawn) [3-57′, 2-amino-4-(4-(2-((S)-4-(4-chlorophenyl)-2,3,9-trimethyl-6H-thieno[3,2-f][1,2,4]triazolo[4,3-a][1,4]diazepin-6-yl)acetamido)phenyl)but-3-yn-1-yl dihydrogen phosphate trifluoroacetic acid] | ++ (the degrading capacity was reduced by 40% to 70% (exclusive of 70)) |
| Cc1sc2c(c1C)C(c1ccc(Cl)cc1)=N[C@@H](CC(=O)NCC#Cc1ccc(C#CCN)o1)c1nnc(C)n1-2.Cl [4-1′, (S)—N-(3-(5-(3-aminoprop-1-yn-1-yl)furan-2-yl)prop-2-yn-1-yl)-2-(4-(4-chlorophenyl)-2,3,9-trimethyl-6H-thieno[3,2-f][1,2,4]triazolo[4,3-a][1,4]diazepin-6-yl)acetamide hydrochloride] | ++ (the degrading capacity was reduced by 40% to 70% (exclusive of 70)) |
| COC(=O)c1cc(N2CCN(C(=O)C[C@@H]3N=C(c4ccc(Cl)cc4)c4c(sc(C)c4C)-n4c(C)nnc43)CC2)ccc1C#CCN.Cl [4-2′, methyl (S)-2-(3-aminoprop-1-yn-1-yl)-5-(4-(2-(4-(4-chlorophenyl)-2,3,9-trimethyl-6H-thieno[3,2-f][1,2,4]triazolo[4,3-a][1,4]diazepin-6-yl)acetyl)piperazin-1-yl)benzoate hydrochloride] | +++ (the degrading capacity was reduced by 70% or more) |
| Cc1sc2c(c1C)C(c1ccc(Cl)cc1)=N[C@@H](CC(=O)NCC#Cc1ccc(C#CCN)s1)c1nnc(C)n1-2.Cl [4-10′, (S)—N-(3-(5-(3-aminoprop-1-yn-1-yl)thiophen-2-yl)prop-2-yn-1-yl)-2-(4-(4-chlorophenyl)-2,3,9-trimethyl-6H-thieno[3,2-f][1,2,4]triazolo[4,3-a][1,4]diazepin-6-yl)acetamide hydrochloride] | +++ (the degrading capacity was reduced by 70% or more) |
| Cc1sc2c(c1C)C(c1ccc(Cl)cc1)=N[C@@H](CC(=O)NCCC(=O)Nc1ccc(C#CCN)cc1)c1nnc(C)n1-2.Cl [4-124′, (S)—N-(4-(3-aminoprop-1-yn-1-yl)phenyl)-3-(2-(4-(4-chlorophenyl)-2,3,9-trimethyl-6H-thieno[3,2-f][1,2,4]triazolo[4,3-a][1,4]diazepin-6-yl)acetamido)propanamide hydrochloride] | +++ (the degrading capacity was reduced by 70% or more) |
| Cc1sc2c(c1C)C(c1ccc(Cl)cc1)=N[C@@H](CC(=O)NCCC(=O)Nc1ccc(C#CCN)c(CO)c1)c1nnc(C)n1-2.Cl [4-125′, (S)—N-(4-(3-aminoprop-1-yn-1-yl)-3-(hydroxymethyl)phenyl)-3-(2-(4-(4-chlorophenyl)-2,3,9-trimethyl-6H-thieno[3,2-f][1,2,4]triazolo[4,3-a][1,4]diazepin-6-yl)acetamido)propanamide hydrochloride] | +++ (the degrading capacity was reduced by 70% or more) |
